Test results taken from patent publication US6121244A, “Antitumoral method by administration of partricin derivatives” (Prospa B.V., priority 1997, dated 2000).
“Also recorded” adds a separate entry of the source. Read-outs that look alike come from different tables or passages of the source.

What was measured:
erythrocytes = details: cited from earlier work; for total hemolytic conc. (THC): erythrocytes
Water solubility = format: physicochemical; details: as salts, in particular diascorbate
[1] = system: thyroid medullary carcinoma (TMC) cells; experiment: Cytotoxicity test (MTT) of cisplatin after pre-treatment with SPA-S-843; format: cell-based
[2] = system: murine WEHI-3B (D+) myelomonocytic leukemia cells; experiment: Cytotoxicity by MTT microtiter test; format: cell-based; details: for dose dependence of toxic effect: linear regression
Experimental: A) Microtiter test (MTT) (Pessina et al. "In vitro short-term and long-term cytotoxicity of fluoroquinones on murine cell line", Ind. J.
The cultures were incubated for 7 days at 37° C. in air+5% CO2 and finally 20 μl of MTT at a conc. of 5 mg/ml in PBS were added to each well. After 3-h incubation at 37° C. the cultures were destroyed with 100 μl of a lytic buffer prepared with sodium dodecylsulfate/dimethylforma-mide/acetic acid/HCl. After further overnight incubation, the optical density (OD) at 620 nm was determined with a microplate LP200 detector. The O.D. of the wells with no cells was considered as 0% proliferation. The O.D. of the wells with growing cells in drug-free medium was considered as 100% proliferation.

[3] = system: carcino-embryonic antigen (CEA); experiment: Carcino-embryonic antigen (CEA) in a patient under chemotherapy, CEA-RIA; format: in vivo, human (patient)
[4] = mice, i.v.; cited from earlier work
[5] = system: murine WEHI-3B (D+) myelomonocytic leukemia cells; details: clonogenic test; amphotericin B vs SPA-S-843; FIG. 4
Experimental: Substances: SPA-S-843 and amphotericin B were dissolved in sterile bidistilled water to a concentration of 2000 μg/ml. The working solutions were prepared in McCoy medium supplemented with penicillin+streptomycin (100 U/ml +100 μg/ml) at the concentrations of from 200 μg/ml to 1.56 μg/ml by subsequent serial 1:2 dilutions.
The murine WEHI-3B (D+) myelomonocytic leukemia cells were maintained through subcultures in 25-cm^2 plastic bottles in McCoy medium (Seromed, Germany) containing 5% FCS (Gibco, USA).
Cell sensitivity to the toxic action of SPA-S-843 in comparison with that of amphotericin B, taken as reference substance, was determined by two different methods:
Acta, 1013, 206-11, 1989).
The clonogenic capacity of WEHI-3B(D+) cells was tested by culturing 300 cells in 0.3 ml of complete enriched medium [McCoy +10% FCS, 10 mM sodium pyruvate, 4% NEAA (10×), 4% Mem Vit (100×)]+0.3% agar in 35 mm Petri plates.
SPA-S-843 and amphotericin B (100 μl) had previously been added to the Petri plates at serial concentrations of from 25 to 0.19 μg/ml. The control plates contained 100 μl of culture medium. The colonies were counted after 7 days of incubation at 37° C. in an atmosphere of air+5% CO2.

| SMILES | concentration at which lytic activity on erythrocytes appears (erythrocytes; of the order of) | water solubility (Water solubility) | potentiation of cisplatin cytotoxicity ([1]; incubation with SPA-S-843 (2 μg/ml)) | effect on resistance of TMC cells to cisplatin ([1]; pre-treatment with SPA-S-843 (2 μg/ml)) | cytotoxicity on WEHI-3B(D+) cells, compared with amphotericin B ([2]; 7 days, FIG. 1) | dose dependence of toxic effect ([2]; FIG. 1) | IC10 ([2]; vs amphotericin B, FIG. 2) | IC50 ([2]; vs amphotericin B, FIG. 2) | IC90 ([2]; vs amphotericin B, FIG. 2) | CEA after phase B ([3]; SPA-S-843 50 mg i.v. combined with 5-fluorouracil (500 mg) and folinic acid (250 mg), 3 weeks later) | sensitivity to usual chemotherapeutic agents in combination with the polyene ([3]; combination with SPA-S-843, one patient) | total hemolytic conc. (THC) (erythrocytes) | LD50 [4] | IC10 [5] | IC50 [5] | IC90 [5] |
| --- | --- | --- | --- | --- | --- | --- | --- | --- | --- | --- | --- | --- | --- | --- | --- | --- |
| CNc1ccc(C(=O)CC(O)CCC(C)C2OC(=O)CC(O)CC(=O)CC(O)CC(O)CC(O)CC(O)CC3(O)CC(O)C(C(=O)NCCN(C)C)C(CC(OC4OC(C)C(O)C(NC(=O)CN(C)C)C4O)C=CC=CC=CC=CC=CC=CC=CC2C)O3)cc1 (stereo not drawn) [SPA-S-843, N-dimethylamino-acetyl-partricin A 2-dimethylaminoethylamide] | ≥ 18000 ng/mL | water soluble | able to potentiate cisplatin cytotoxicity against resistant cells up to the level of naturally sensitive cells; also recorded: cytotoxic for all TMC cells | substantially counteracted | substantially higher; also recorded: more sensitive to SPA-S-843 than to amphotericin B | dose-related kinetics | significantly lower | significantly lower | significantly lower | 65 ng/mL | re-established the sensitivity |  |  |  |  |  |
| CNc1ccc(C(=O)CC(O)CCC(C)C2OC(=O)CC(O)CC(=O)CC(O)CC(O)CC(O)CC(O)CC3(O)CC(O)C(C(=O)NCCN(C)C)C(CC(OC4OC(C)C(O)C(NC(=O)CN(C)C)C4O)C=CC=CC=CC=CC=CC=CC=CC2C)O3)cc1 (stereo not drawn) [SPA-S-843 free base, N-dimethylamino-acetyl-partricin A 2-dimethylaminoethylamide] |  |  |  |  |  |  |  |  |  |  |  | > 18 µg/mL |  |  |  |  |
| C[C@@H]1[C@H](O)[C@@H](C)/C=C/C=C/C=C/C=C/C=C/C=C/C=C/[C@H](O[C@@H]2O[C@H](C)[C@@H](O)[C@H](N)[C@@H]2O)C[C@@H]2O[C@](O)(C[C@@H](O)C[C@@H](O)[C@H](O)CC[C@@H](O)C[C@@H](O)CC(=O)O[C@H]1C)C[C@H](O)[C@H]2C(=O)O [amphotericin B] |  |  |  |  |  | dose-related kinetics |  |  |  |  |  | 2 µg/mL | 4.77 mg/kg | significantly higher | significantly higher | significantly higher |
